Measured values: patent US9510598B2, “Nitrogen-containing heterocyclic compounds for plant disease control” (BAYER CROPSCIENCE AG, priority 2012, dated 2016)
“And” between values parts separate entries of the source, which are not always exact repeats. Equal values may be shown once. Read-outs that look alike come from different tables or passages of the source.

Experiments:
[1] = Table 2, formula (II); method [a]: pH 2.7, 0.1% formic acid in water / acetonitrile gradient
[2] = format: physicochemical
Botrytis cinerea = experiment: In vivo preventive test on Botrytis cinerea (grey mould); settings: 500 ppm; gherkin plants sprayed 24 hours before contamination; grading 4-5 days after contamination vs control plants
Procedure, shortened: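 Gherkin plants ("Vert petit de Paris") sprayed with compound at Z11 cotyledon stage, then inoculated 24 h later with B. cinerea spores (50 000/ml) in PDB/fructose/NH4NO3/KH2PO4 nutrient solution. Incubated at 17 °C, 80% RH; % efficacy versus solvent-treated controls graded 4–5 days after contamination.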

Septoria tritici = experiment: In vivo preventive test on Septoria tritici (leaf spot on wheat); settings: 500 ppm; wheat plants sprayed 24 hours before contamination; grading 21 to 28 days after contamination vs control plants
Procedure, shortened: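 Scipion wheat at 1-leaf stage sprayed with compound, controls receiving acetone/tween/DMSO/water vehicle; 24 h later leaves inoculated with Septoria tritici spores (500 000 spores per ml). Efficacy (%) graded versus control plants 21 to 28 days after contamination.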

Sphaerotheca fuliginea = experiment: In vivo preventive test on Sphaerotheca fuliginea (powdery mildew on cucurbits); settings: 500 ppm; gherkin plants sprayed 24 hours before contamination; grading 12 days after contamination vs control plants
Description: Gherkin plants (“Vert petit de Paris” variety), sown in starter cups on a 50/50 peat soil-pozzolana substrate and grown at 24° C., are treated at the Z11 cotyledon stage by spraying with the active ingredient prepared as described above. Plants, used as controls, are treated with the mixture of acetone/tween/DMSO/water not containing the active material. After 24 hours, the plants are contaminated by spraying the cotyledons with an aqueous suspension of Sphaerotheca fuliginea spores (100 000 spores per ml). The spores are collected from infected plants. […] Grading (% of efficacy) is carried out 12 days after the contamination, in comparison with the control plants.

[3] = HPLC on reversed phase columns, method [a]: pH 2.7, 0.1% formic acid in water / acetonitrile, linear gradient 10% to 95% acetonitrile
[4] = method [a]: HPLC/LC-MS on reversed phase at pH 2.7, 0.1% formic acid in water / acetonitrile, gradient 10% to 95% acetonitrile
[5] = HPLC on reversed phase columns, method [a]: pH 2.7, 0.1% formic acid in water and acetonitrile, linear gradient 10% to 95% acetonitrile

Structure (SMILES)	Log P [1]	log P [2, 3]	log P [2, 4]	log P [2, 5]	% of efficacy (protection) (Botrytis cinerea) [%]	% of efficacy (protection) (Septoria tritici) [%]	% of efficacy (protection) (Sphaerotheca fuliginea) [%]
COC(=O)C1(C)ON=C(c2ccc3ncc(Br)cc3c2)C1C (mixture of isomers) [II-15]	2.94[a]	–	–	–	–	–	–
COC(=O)C1(C(C)O)CC(c2ccc3ncc(Br)cc3c2)=NO1 (mixture of isomers) [II-19]	2.18[a]	–	–	–	–	–	–
CC(O)C1(C(=O)O)CC(c2ccc3ncc(Br)cc3c2)=NO1 (mixture of isomers) [II-77]	1.60 and 1.65	–	–	–	–	–	–
CC1(C(=O)O)CC(c2cc3cc(Br)cnc3c(F)c2F)=NO1 (racemic) [II-02]	2.25[a]	–	–	–	–	–	–
COC1(C(=O)O)CC(c2ccc3ncc(Br)cc3c2)=NO1 (racemic) [II-04]	1.73[a]	–	–	–	–	–	–
COc1c(C2=NOC(C)(C(=O)O)C2)cc2cccnc2c1F (racemic) [II-05]	1.39[a]	–	–	–	–	–	–
O=C(O)C1(CCl)CC(c2ccc3ncc(Br)cc3c2)=NO1 (racemic) [II-06]	2.11[a]	–	–	–	–	–	–
CC(NC(=O)C1(C)CC(c2ccc3ncc(Br)cc3c2)=NO1)C1=NOCC1 (stereo not shown) [compound 293]	–	2.34[a]	–	–	97	96	90
Cc1nc(C)c(C(C)NC(=O)C2(C)CC(c3ccc4ncc(Br)cc4c3)=NO2)s1 (stereo not shown) [compound 296]	–	2.46[a]	–	–	97	100	100
COC1(C(=O)NCC2COC(C)(C)O2)CC(c2ccc3ncc(I)cc3c2)=NO1 (stereo not shown) [compound 483]	–	–	2.73[a]	–	100	100	100
COC1(C(=O)NCC2COC(C)(C)O2)CC(c2ccc3ncc(Br)cc3c2)=NO1 (stereo not shown) [compound 496]	–	–	2.62[a]	–	99	100	100
COC1(C(=O)NC2CC2)CC(c2ccc3ncc(Br)cc3c2)=NO1 (stereo not shown) [compound 508]	–	–	2.35[a]	–	100	94	98
CCCn1cc(CNC(=O)C2(C)CC(c3cc(C)c4ncc(Br)cc4c3)=NO2)c(C)n1 (stereo not shown) [compound 534]	–	3.29[a]	–	–	100	92	100
Cc1cc(C2=NOC(C)(C(=O)NCC3COC(C)(C)O3)C2)cc2cc(Br)cnc12 (stereo not shown) [compound 538]	–	3.39[a]	–	–	100	100	100
CC1(C)OCC(CNC(=O)C2(C)CC(c3cc(Cl)c4ncc(Br)cc4c3)=NO2)O1 (stereo not shown) [compound 540]	–	3.17[a]	–	–	100	92	94
CC(C)NC(=O)C1(C)CC(c2cc(Cl)c3ncc(Br)cc3c2)=NO1 (stereo not shown) [compound 541]	–	3.29[a]	–	–	100	100	98
C#Cc1cnc2c(Cl)cc(C3=NOC(C)(C(=O)NC4CCC4)C3)cc2c1 (stereo not shown) [compound 544]	–	3.15[a]	–	–	100	100	98
C#Cc1cnc2c(Cl)cc(C3=NOC(C)(C(=O)NCc4cnc(C)cn4)C3)cc2c1 (stereo not shown) [compound 558]	–	2.39[a]	–	–	97	100	85
C#Cc1cnc2c(Cl)cc(C3=NOC(C)(C(=O)NCC4COC(C)(C)O4)C3)cc2c1 (stereo not shown) [compound 559]	–	2.84[a]	–	–	95	100	85
COC1(C(=O)NCC2COC(C)(C)O2)CC(c2cc(Cl)c3ncc(Br)cc3c2)=NO1 (stereo not shown) [compound 568]	–	3.11[a]	–	–	99	100	94
COC1(C(=O)NC(C)C)CC(c2cc(Cl)c3ncc(Br)cc3c2)=NO1 (stereo not shown) [compound 569]	–	3.15[a]	–	–	100	100	100
CCCn1cc(CNC(=O)C2(OC)CC(c3cc(C)c4ncc(Br)cc4c3)=NO2)c(C)n1 (stereo not shown) [compound 595]	–	3.27[a]	–	–	100	100	100
COC1(C(=O)NCc2cnc(C)cn2)CC(c2cc(C)c3ncc(Br)cc3c2)=NO1 (stereo not shown) [compound 596]	–	2.78[a]	–	–	99	100	83
CCn1cc(CNC(=O)C2(C(F)F)CC(c3ccc4ncc(Br)cc4c3)=NO2)c(C)n1 (stereo not shown) [compound 621]	–	2.64[a]	–	–	83	97	97
C=CC1(C(=O)NCC2COC(C)(C)O2)CC(c2ccc3ncc(I)cc3c2)=NO1 (stereo not shown) [compound 729]	–	–	–	3.11[a]	97	100	100
C=CC1(C(=O)NC(C)C)CC(c2ccc3ncc(Br)cc3c2)=NO1 (stereo not shown) [compound 734]	–	–	–	3.08[a]	95	100	98

More lines, main results first:

Log P [1]	log P [2, 3]	log P [2, 4]	log P [2, 5]	Structure (SMILES)	% of efficacy (protection) (Botrytis cinerea) [%]	% of efficacy (protection) (Septoria tritici) [%]	% of efficacy (protection) (Sphaerotheca fuliginea) [%]
1.94[a]	–	–	–	CC1(C(=O)O)CC(c2ccc3ncc(Br)cc3c2)=NO1 (racemic) [II-03]	–	–	–
–	–	1.98[a]	–	C#Cc1cnc2ccc(C3=NOC(C)(C(=O)Nc4cnn(C)c4)C3)cc2c1 (stereo not shown) [compound 462]	98	100	98
–	–	2.43[a]	–	C#Cc1cnc2ccc(C3=NOC(C)(C(=O)NOC(C)C4CC4)C3)cc2c1 (stereo not shown) [compound 471]	89	97	98
–	–	2.08[a]	–	C#Cc1cnc2ccc(C3=NOC(OC)(C(=O)N(O)C(C)C)C3)cc2c1 (stereo not shown) [compound 475]	100	83	88
–	2.28[a]	–	–	C#Cc1cnc2ccc(C3=NOC(OC)(C(=O)NC(C)CC(=O)OC)C3)cc2c1 (stereo not shown) [compound 512]	98	97	97
–	2.58[a]	–	–	C#Cc1cnc2ccc(C3=NOC(C)(C(=O)NC(CC)COC)C3)cc2c1 (stereo not shown) [compound 524]	100	93	93
–	2.12[a]	–	–	C#Cc1cnc2ccc(C3=NOC(C)(C(=O)NCC)C3)cc2c1 (stereo not shown) [compound 527]	100	97	94
–	1.84[a]	–	–	C#Cc1cnc2ccc(C3=NOC(C)(C(=O)NC)C3)cc2c1 (stereo not shown) [compound 531]	100	100	98
–	2.07[a]	–	–	CNC(=O)C1(C)CC(c2ccc3ncc(Br)cc3c2)=NO1 (stereo not shown) [compound 532]	100	100	89
–	2.50[a]	–	–	C#Cc1cnc2c(C)cc(C3=NOC(C)(C(=O)NCc4cnc(C)cn4)C3)cc2c1 (stereo not shown) [compound 535]	100	100	100
–	2.96[a]	–	–	C#Cc1cnc2c(Cl)cc(C3=NOC(C)(C(=O)NC(C)C)C3)cc2c1 (stereo not shown) [compound 543]	100	100	100
–	2.39[a]	–	–	C#Cc1cnc2ccc(C3=NOC(C(=O)NCc4cn(CC)nc4C)(C(F)F)C3)cc2c1 (stereo not shown) [compound 613]	100	79	100
–	2.64[a]	–	–	C#Cc1cnc2ccc(C3=NOC(C(=O)NCC4COC(C)(C)O4)(C(F)F)C3)cc2c1 (stereo not shown) [compound 614]	100	97	92
–	–	–	2.73[a]	C#Cc1cnc2ccc(C3=NOC(C=C)(C(=O)NC(C)C)C3)cc2c1 (stereo not shown) [compound 727]	98	100	98
